Experimental data from patent EP0197661A2, “Low-calorie sugar composition” (Takeda Chemical Industries, Ltd., priority 1985, dated 1986).
Marks after values point to notes of the source that are not given here.

Tested on: Male rats (Jcl:SD strain)
Test: Oral sucrose loading in fasted rats with varying dosage of AO-128; blood glucose level
Type: in vivo
Details: rats fasted 20 hours, mean ± standard deviation
Experimental: Male rats (Jcl:SD strain, purchased from Clea Japan) aged 6 weeks, which had been raised on commercially available pelleted rat chow (CE-2®, Clea Japan), were fasted for 20 hours and, then, administered orally with 2.5 g/kg of sucrose containing a varying dosage of AO-128. The blood glucose level was determined 30, 60 and 120 minutes after administration.

[1] = AO-128 0.1mg/Kg with 2.5 g/kg sucrose orally
[2] = AO-128 0.2mg/Kg with 2.5 g/kg sucrose orally
[3] = AO-128 0.4mg/Kg with 2.5 g/kg sucrose orally

SMILES: OCC(CO)N[C@H]1C[C@](O)(CO)[C@@H](O)[C@H](O)[C@H]1O [AO-128, N-(l,3-dihydroxy-2-propyl)valiolamine]
- Blood glucose level 0 min. [1]: 69 ± 4 mg/dL
- Blood glucose level 60 min. [1]: 101±2^a mg/dℓ
- Blood glucose level 120 min. [1]: 88±3^a mg/dℓ
- Delta glucose area [1]: 52±5^b mg/dℓ·hr
- Blood glucose level 30 min. [2]: 102±6^b mg/dℓ
- Delta glucose area [2]: 38±7^a mg/dℓ·hr
- Blood glucose level 0 min. [3]: 67 ± 4 mg/dL
- Blood glucose level 30 min. [3]: 79±2^a mg/dℓ
- Blood glucose level 60 min. [3]: 77±5^a mg/dℓ
- Blood glucose level 120 min. [3]: 71±5^a mg/dℓ
